# Laboratory results: patent US20090110671A1, “AGENT FOR ENHANCHING THE PRODUCTION OF COLLAGEN AND IT'S USE” (priority 2005, published 2009)
# Key:
# [1] = test system: skin wrinkles/finely-wrinkles and flabby skin; experiment: Experiment 5: self-evaluation of lotions on skin wrinkles/finely-wrinkles and flabby skin, four months; assay type: in vivo, human; details: lotion, no saccharide, 3 times a day, 4 months
# Method: The following experiment was conducted to examine the influence of α,α-trehalose or saccharide derivatives thereof and hyaluronic acid and/or chondroitin sulfate on the skin. Since there exists a relatively constant amount of L-ascorbic acid in vivo, the collagen production by L-ascorbic acid proceeds constantly. Based on the following basic formulation for lotion and the combination and composition in Table 5, 100 parts by weights of a lotion was prepared by adding to the basic formulation sodium hyaluronate, chondroitin sulfate, hydrous crystalline α,α-trehalose, a cosmetic grade specimen commercialized by Hayashibara Biochemical Laboratories Inc., Okayama, Japan, and “[…]”, a product name of a syrup having a solid content of about 75% and containing, on a dry solid basis, about 53% by weight of α-maltosyl α,α-trehalose and about 5% by weight of other saccharide derivatives of α,α-trehalose, and an adequate amount of refined water. In Table 5, the respective amounts of the added saccharide are expressed on a dry solid basis. The syrup containing saccharide derivatives of α,α-trehalose was added in an amount of the saccharide derivatives as shown in Table 5. Eleven women as volunteers, who had been suffering from skin wrinkles/finely-wrinkles or flabby skin, were allowed to wash their faces with any of the lotions having compositions in Table 5 three times a day for four months and then allowed to evaluate themselves about their face-skin conditions by comparing with those before use of the lotions.
# NHDF cells [2] = experiment: Experiment 4: collagen production in NHDF cells, saccharides combined with hyaluronic acid and/or chondroitin sulfate; assay type: cell-based, human
# Source text: Influence of α,α-trehalose or a saccharide derivative thereof, or a combination use of any of these saccharides and hyaluronic acid and/or chondroitin sulfate on the collagen production by L-ascorbic acids was examined as follows. AA-2G and any one of hydrous crystalline α,α-trehalose, a reagent grade specimen commercialized by Hayashibara Biochemical Laboratories Inc., Okayama, Japan; α-maltosyl α,α-trehalose with a purity of at least 98% commercialized by Hayashibara Biochemical Laboratories Inc., Okayama, Japan; and “HALLODEX”, a product name of a syrup of saccharide derivatives of α,α-trehalose were dissolved in D-MEM medium to give final concentrations of 50 μM of AA-2G and 15.0 mg/ml of saccharides. Further, as another test solutions, those, which had been prepared similarly as in the above, were admixed with any one of hyaluronic acid, chondroitin sulfate, and a combination thereof to give respective concentrations of 1 mg/ml, 1 mg/ml, and 0.5 mg/ml of hyaluronic acid and chondroitin sulfate each. The medium supplemented with a syrup containing about 59%, d.s.b., of saccharide derivatives of α,α-trehalose was prepared to give a concentration of 15.0 mg/ml of the saccharide derivatives of α,α-trehalose contained in the syrup. The culture of NHDF cells and the quantification of collagen-production level thereof were carried out similarly as in Experiment 1. The results are in Table 4 where the values are expressed with relative values in terms of the collagen-production level of NHDF cells, being regarded as 100, when cultured in D-MEM medium containing AA-2G.
# NHDF cells [3] = experiment: Experiment 2: collagen sedimented over cell surface and released in supernatant of NHDF cells, α,α-trehalose or maltose with AA-2G; assay type: cell-based, human
# Method: Influence of α,α-trehalose and maltose on collagen production using NHDF cells was examined by the following experiment: Test solutions were prepared by dissolving either AA-2G; hydrous crystalline α,α-trehalose, a reagent grade specimen, commercialized by Hayashibara Biochemical Laboratories Inc., Okayama, Japan; or hydrous crystalline maltose, a reagent grade specimen, commercialized by Hayashibara Biochemical Laboratories Inc., Okayama; Japan, in […] The methods for culturing NHDF cells and quantifying the collagen-production level of the cells were conducted similarly as in Experiment 1. The collagen level in each culture supernatant of NHDF cells was determined in such a manner of collecting the culture supernatant and quantifying the collagen released in the supernatant by using “Sircol Collagen Quantification Kit”. As a control, D-MEM medium containing 50 μM AA-2G was used. These control and test solutions were respectively experimented using three wells, followed by calculating a mean value for collagen-production levels in the wells. The results are in Table 2 where the values are expressed with relative values for either or both of the levels of collagen, that had sedimented over the cell surfaces or released in the supernatants, in terms of their collagen-production levels of NHDF cells, which had been cultured in D-MEM medium containing 50 μM AA-2G, being regarded as 100.
# NHDF cells [4] = experiment: Experiment 3: collagen production in NHDF cells, α,α-trehalose and saccharide derivatives with or without AA-2G; assay type: cell-based, human
# Method: Based on the confirmation that α,α-trehalose has an action of enhancing the collagen production by L-ascorbic acid, it was experimented as follows to confirm whether saccharide derivatives of α,α-trehalose have such a similar action and effect. Test solutions were prepared by dissolving in D-MEM medium any one of AA-2G, hydrous crystalline α,α-trehalose, a reagent grade specimen with a purity of at least 98%, commercialized by Hayashibara Biochemical Laboratories Inc., Okayama, Japan; “HALLODEX”, a product name of a syrup of saccharide derivatives of α,α-trehalose, having a solid content of about 75% and containing, on a dry solid basis, about 53% of α-maltosyl α,α-trehalose and about 5% of other saccharide derivatives of α,α-trehalose in total, to give final concentrations of 50 μM of AA-2G and 15.0 mg/ml of saccharides. As a control, test solutions were prepared by dissolving in D-MEM medium either of the above hydrous crystalline α,α-trehalose, α-maltosyl α,α-trehalose, or syrup of saccharide derivatives of α,α-trehalose to give a final concentration of 15.0 mg/ml. The medium admixed with the syrup containing saccharide derivatives of α,α-trehalose was adjusted to give a concentration of 15.0 mg/ml of saccharide derivatives of α,α-trehalose. The culture of NHDF cells and the quantification of collagen-production level thereof were carried out similarly as in Experiment 1. The results are in Table 3, where the values are expressed with relative values in terms of the collagen production level of NHDF cells, being regarded as 100, when cultured in D-MEM medium containing AA-2G.
# [5] = test system: NHDF cells (normal human dermal fibroblast cell); experiment: Experiment 1: collagen production in NHDF cells (Sircol kit), α,α-trehalose with AA-2G; assay type: cell-based; details: D-MEM with 50 μM AA-2G, no α,α-trehalose; reference regarded as 100
# Method: Using “fibrocell NHDF”, a normal human dermal fibroblast cell, commercialized by Kurashiki Spinning Co., Ltd., Okayama, Japan (abbreviated as “NHDF cells”, hereinafter), experiment for studying the influence of α,α-trehalose on the collagen production by L-ascorbic acids was conducted based on the method described in Bioscience, Biotechnology, and Biochemistry, Vol. 68, No. 4, pp. 767-773, 2004. The method is outlined below: Test solutions were prepared by dissolving L-ascorbic acid 2-glucoside, a reagent grade specimen commercialized by Hayashibara Biochemical Laboratories Inc., Okayama, Japan (may be abbreviated as “AA-2G”, hereinafter), and α,α-trehalose, a reagent grade specimen commercialized by Hayashibara Biochemical Laboratories Inc., Okayama, Japan, in Dulbecco […] essential medium containing 10% (v/v) fetal calf serum and an antibiotic (abbreviated as “D-MEM”, hereinafter) to give a final concentration of 50 μM/ml of AA-2G and a final concentration of 7.5, 15 or 30 mg/ml of α,α-trehalose. NHDF cells, which had been successively cultured in D-MEM medium, were collected, re-suspended in a fresh preparation of D-MEM medium, inoculated to 96-well microplates at a cell concentration of 2.5×10^4 cells/200 μl/well, and cultured for 24 hours. Thereafter, the supernatants of the cultures were removed by sucking, and further cultured for five days after addition of any of the test solutions in a volume of 200 μl/well. As controls, the cells, which had been cultured for 24 hours, were further cultured for five days after addition of 200 μl/well of D-MEM medium, D-MEM medium supplemented with α,α-trehalose at a concentration of 30 mg/ml, or D-MEM medium supplemented with AA-2G at a concentration of 50 μM/ml. After completion of culturing, the supernatants of the cultures were removed by sucking, admixed with 50 μl/well of 1 M acetic acid solution containing 1 mg/ml of pepsin, and shaken for four hours to solubilize collagen adhered to the cell surfaces, followed by quantifying the content of collagen accumulated in the cells using “Sircol Collagen Quantification Kit”, commercialized by Biocolor Ltd. These control and test solutions were respectively experimented with three wells, followed by calculating a mean value for collagen-production levels in the wells. All the cultures of the NHDF cells were conducted in a 5% (v/v) CO2 incubator. The results are in Table 1 where the values are expressed with relative values in terms of the collagen-production level of NHDF cells, which had been cultured in D-MEM medium containing AA-2G, being regarded as 100.
# [6] = sodium hyaluronate 0.5 part by weight
# [7] = saccharide 0.2 mg/ml + 50 μM AA-2G, relative to AA-2G = 100
# [8] = saccharide 0.6 mg/ml + 50 μM AA-2G, relative to AA-2G = 100
# [9] = saccharide 1.7 mg/ml + 50 μM AA-2G, relative to AA-2G = 100
# [10] = saccharide 5.0 mg/ml + 50 μM AA-2G, relative to AA-2G = 100
# [11] = saccharide 15.0 mg/ml + 50 μM AA-2G, relative to AA-2G = 100
# [12] = D-MEM containing 50 μM AA-2G alone, reference regarded as 100
# [13] = chondroitin sulfate 0.5 part by weight
molecule,measurement,setting,value
sodium hyaluronate,Evaluation A (remarkably efficacious),[1]; [6],0 number of volunteers
same,Evaluation B (efficacious),[1]; [6],0 number of volunteers
same,Evaluation C (slightly efficacious),[1]; [6],2 number of volunteers
same,Evaluation D (inefficacious),[1]; [6],9 number of volunteers
same,Collagen-production level,"NHDF cells [2]; no saccharide, 50 μM AA-2G + sodium hyaluronate 1 mg/ml",98
OC[C@H]1O[C@H](O[C@H]2[C@H](O)[C@@H](O)C(O)O[C@@H]2CO)[C@H](O)[C@@H](O)[C@@H]1O (mixture of isomers) [maltose],"Collagen-production level, In supernatant",NHDF cells [3]; [7],101
same,"Collagen-production level, Total",NHDF cells [3]; [7],99
same,"Collagen-production level, In supernatant",NHDF cells [3]; [8],134
same,"Collagen-production level, Total",NHDF cells [3]; [8],92
same,"Collagen-production level, In supernatant",NHDF cells [3]; [9],288
same,"Collagen-production level, Total",NHDF cells [3]; [9],97
same,"Collagen-production level, In supernatant",NHDF cells [3]; [10],256
same,"Collagen-production level, Total",NHDF cells [3]; [10],61
same,"Collagen-production level, In supernatant",NHDF cells [3]; [11],228
same,"Collagen-production level, Total",NHDF cells [3]; [11],44
"OC[C@H]1O[C@H](O[C@H]2O[C@H](CO)[C@@H](O[C@H]3O[C@H](CO)[C@@H](O[C@H]4O[C@H](CO)[C@@H](O)[C@H](O)[C@H]4O)[C@H](O)[C@H]3O)[C@H](O)[C@H]2O)[C@H](O)[C@@H](O)[C@@H]1O [α-Maltosyl α,α-trehalose, α-maltosyl α,α-trehalose]",Collagen-production level,NHDF cells [4]; [11],182
same,Collagen-production level,"NHDF cells [4]; saccharide 15.0 mg/ml, AA-2G not added, relative to AA-2G = 100",39
same,Collagen-production level,NHDF cells [2]; saccharide 15.0 mg/ml + 50 μM AA-2G,158
same,Collagen-production level,NHDF cells [2]; saccharide 15.0 mg/ml + 50 μM AA-2G + chondroitin sulfate 1 mg/ml,188
same,Collagen-production level,NHDF cells [2]; saccharide 15.0 mg/ml + 50 μM AA-2G + hyaluronate and chondroitin sulfate 0.5 mg/ml each,276
same,Collagen-production level,NHDF cells [2]; saccharide 15.0 mg/ml + 50 μM AA-2G + sodium hyaluronate 1 mg/ml,199
same,Collagen-production level,"NHDF cells [2]; saccharide 15.0 mg/ml alone, no AA-2G, no hyaluronate, no chondroitin sulfate",39
"O=C1O[C@H]([C@@H](O)CO)C(O)=C1O[C@H]1O[C@H](CO)[C@@H](O)[C@H](O)[C@H]1O [AA-2G, L-ascorbic acid 2-glucoside, reference compound]","Collagen-production level, In supernatant",NHDF cells [3]; [12],100
same,"Collagen-production level, Total",NHDF cells [3]; [12],100
same,Collagen-production level,[5],100
same,Collagen-production level,"NHDF cells [4]; no saccharide, 50 μM AA-2G added, reference regarded as 100",100
same,Collagen-production level,"NHDF cells [2]; no saccharide, 50 μM AA-2G alone, reference regarded as 100",100
chondroitin sulfate,Evaluation A (remarkably efficacious),[1]; [13],0 number of volunteers
same,Evaluation B (efficacious),[1]; [13],0 number of volunteers
same,Evaluation C (slightly efficacious),[1]; [13],1 number of volunteers
same,Evaluation D (inefficacious),[1]; [13],10 number of volunteers
same,Collagen-production level,"NHDF cells [2]; no saccharide, 50 μM AA-2G + chondroitin sulfate 1 mg/ml",97
